# Measured values from patent publication US20170190671A1, “BIS(ARYL)CATECHOL DERIVATIVES AS HERBICIDES” (E I DU PONT DE NEMOURS AND COMPANY, priority 2014, published 2017).
# Columns and labels:
# [1] = tested on: Italian ryegrass (Lolium multiflorum); experiment: Test C preemergence; type: in vivo; conditions: Lolium multiflorum, pre-emergence, 336 h, scale 0 to 100, read-out: Plant response rating, Ryegrass, Italian
# Method in brief: (§1)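 Treatment is preemergence to seeds in a loam and sand soil, or postemergence to plants 2 to 18 cm high in a peat moss-based medium. The compound is delivered in a non-phytotoxic solvent mixture including surfactant. Effects are judged by eye 13 to 15 days later on a 0 to 100 scale.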
# [2] = tested on: barnyardgrass (Echinochloa crus-galli); experiment: Test C preemergence; type: in vivo; conditions: Echinochloa crus-galli, pre-emergence, read-out: Plant response rating, Barnyardgrass
# Method in brief: as §1
# [3] = tested on: blackgrass (Alopecurus myosuroides); experiment: Test C preemergence; type: in vivo; conditions: Alopecurus myosuroides, pre-emergence, 336 h, scale 0 to 100, read-out: Plant response rating, Blackgrass
# Method in brief: as §1
# corn (Zea mays) [4] = experiment: Test C preemergence; type: in vivo; conditions: Zea mays, pre-emergence, 336 h, scale 0 to 100
# Method in brief: as §1
# [5] = tested on: giant foxtail (Setaria faberii); experiment: Test C preemergence; type: in vivo; conditions: Setaria faberi, pre-emergence, 336 h, scale 0 to 100, read-out: Plant response rating, Foxtail, Giant
# Method in brief: as §1
# [6] = tested on: johnsongrass (Sorghum halepense); experiment: Test C preemergence; type: in vivo; conditions: Sorghum halepense, pre-emergence, 336 h, scale 0 to 100, read-out: Plant response rating, Johnsongrass
# Method in brief: as §1
# [7] = tested on: lambsquarters (Chenopodium album); experiment: Test C preemergence; type: in vivo; conditions: Chenopodium album, pre-emergence, 336 h, scale 0 to 100, read-out: Plant response rating, Lambsquarters
# Method in brief: as §1
# [8] = tested on: large (Lg) crabgrass (Digitaria sanguinalis); experiment: Test C preemergence; type: in vivo; conditions: Digitaria sanguinalis, pre-emergence, 336 h, scale 0 to 100, read-out: Plant response rating, Crabgrass, Large
# Method in brief: as §1
# [9] = tested on: morningglory (Ipomoea coccinea); experiment: Test C preemergence; type: in vivo; conditions: Ipomoea, pre-emergence, 336 h, scale 0 to 100, read-out: Plant response rating, Morningglory
# Method in brief: as §1
# [10] = tested on: oilseed rape (Brassica napus); experiment: Test C preemergence; type: in vivo; conditions: Brassica napus, pre-emergence, scale 0 to 100, read-out: Plant response rating, Oilseed Rape
# Method in brief: as §1
# [11] = tested on: pigweed (Amaranthus retroflexus); experiment: Test C preemergence; type: in vivo; conditions: Amaranthus retroflexus, pre-emergence, 336 h, scale 0 to 100, read-out: Plant response rating, Pigweed
# Method in brief: as §1
# soybean (Glycine max) [12] = experiment: Test C preemergence; type: in vivo; conditions: Glycine max, pre-emergence, scale 0 to 100, read-out: Plant response rating, Soybean
# Method in brief: as §1
# [13] = tested on: velvetleaf (Abutilon theophrasti); experiment: Test C preemergence; type: in vivo; conditions: Abutilon theophrasti, pre-emergence, scale 0 to 100, read-out: Plant response rating, Velvetleaf
# Method in brief: as §1
# [14] = tested on: waterhemp (common waterhemp, Amaranthus rudis); experiment: Test C preemergence; type: in vivo; conditions: Amaranthus tuberculatus, pre-emergence, scale 0 to 100, read-out: Plant response rating, Waterhemp
# Method in brief: as §1
# [15] = tested on: winter wheat (Triticum aestivum); experiment: Test C preemergence; type: in vivo; conditions: Triticum aestivum, pre-emergence, 336 h, scale 0 to 100, read-out: Plant response rating, Wheat
# Method in brief: as §1
# [16] = tested on: yellow nutsedge (Cyperus esculentus); experiment: Test C preemergence; type: in vivo; conditions: Cyperus, pre-emergence, 336 h, scale 0 to 100, read-out: Plant response rating, Nutsedge, Yellow
# Method in brief: as §1
# corn (Zea mays) [17] = experiment: Test C postemergence; type: in vivo; conditions: Zea mays, post-emergence, 336 h, Postemergence, scale 0 to 100
# Method in brief: as §1
# [18] = tested on: galium (catchweed bedstraw, Galium aparine); experiment: Test C postemergence; type: in vivo; conditions: Galium, post-emergence, 336 h, Postemergence, scale 0 to 100, read-out: Plant response rating, Galium
# Method in brief: as §1
# [19] = tested on: lambsquarters (Chenopodium album); experiment: Test C postemergence; type: in vivo; conditions: Chenopodium album, post-emergence, 336 h, Postemergence, scale 0 to 100, read-out: Plant response rating, Lambsquarters
# Method in brief: as §1
# [20] = tested on: ragweed (common ragweed, Ambrosia elatior); experiment: Test C postemergence; type: in vivo; conditions: Ambrosia artemisiifolia, post-emergence, 336 h, Postemergence, scale 0 to 100, read-out: Plant response rating, Ragweed
# Method in brief: as §1
# soybean (Glycine max) [21] = experiment: Test C postemergence; type: in vivo; conditions: Glycine max, post-emergence, Postemergence, scale 0 to 100, read-out: Plant response rating, Soybean
# Method in brief: as §1
# [22] = tested on: waterhemp (common waterhemp, Amaranthus rudis); experiment: Test C postemergence; type: in vivo; conditions: Amaranthus tuberculatus, post-emergence, Postemergence, scale 0 to 100, read-out: Plant response rating, Waterhemp
# Method in brief: as §1
smiles,measurement,setting,value
"Fc1ccc(F)c(Oc2ncc(Cl)cn2)c1Oc1ncc(Cl)cn1 [Compound 34, 2,2′-[(3,6-difluoro-1,2-phenylene)bis(oxy)]bis[5-chloropyrimidine]]",pest or weed control at 31 g/ha,"[1]; 31 g ai/ha, preemergence",5%
same,pest or weed control at 62 g/ha,"[1]; 62 g ai/ha, preemergence",10%
same,pest or weed control at 125 g/ha,"[1]; 125 g ai/ha, preemergence",35%
same,pest or weed control at 16 g/ha,"[1]; Preemergence, 16 g ai/ha",0%
same,pest or weed control at 31 g/ha,"[2]; 31 g ai/ha, preemergence, scale 0 to 100",55%
same,pest or weed control at 62 g/ha,"[2]; 62 g ai/ha, preemergence, scale 0 to 100",85%
same,pest or weed control at 125 g/ha,"[2]; 125 g ai/ha, preemergence, scale 0 to 100",98%
same,pest or weed control at 16 g/ha,"[2]; Preemergence, 16 g ai/ha, scale 0 to 100 (0 no effect, 100 complete control)",20%
same,pest or weed control at 31 g/ha,"[3]; 31 g ai/ha, preemergence",0%
same,pest or weed control at 62 g/ha,"[3]; 62 g ai/ha, preemergence",60%
same,pest or weed control at 125 g/ha,"[3]; 125 g ai/ha, preemergence",70%
same,pest or weed control at 16 g/ha,"[3]; Preemergence, 16 g ai/ha",0%
same,"Corn plant response rating (crop injury, 0 = no effect, 100 = complete kill) at 31 g/ha","corn (Zea mays) [4]; 31 g ai/ha, preemergence",5%
same,"Corn plant response rating (crop injury, 0 = no effect, 100 = complete kill) at 62 g/ha","corn (Zea mays) [4]; 62 g ai/ha, preemergence",20%
same,"Corn plant response rating (crop injury, 0 = no effect, 100 = complete kill) at 125 g/ha","corn (Zea mays) [4]; 125 g ai/ha, preemergence",40%
same,"Corn plant response rating (crop injury, 0 = no effect, 100 = complete kill) at 16 g/ha","corn (Zea mays) [4]; Preemergence, 16 g ai/ha",0%
same,pest or weed control at 31 g/ha,"[5]; 31 g ai/ha, preemergence",98%
same,pest or weed control at 62 g/ha,"[5]; 62 g ai/ha, preemergence",100%
same,pest or weed control at 125 g/ha,"[5]; 125 g ai/ha, preemergence",100%
same,pest or weed control at 16 g/ha,"[5]; Preemergence, 16 g ai/ha",70%
same,pest or weed control at 31 g/ha,"[6]; 31 g ai/ha, preemergence",55%
same,pest or weed control at 62 g/ha,"[6]; 62 g ai/ha, preemergence",75%
same,pest or weed control at 125 g/ha,"[6]; 125 g ai/ha, preemergence",98%
same,pest or weed control at 16 g/ha,"[6]; Preemergence, 16 g ai/ha",50%
same,pest or weed control at 31 g/ha,"[7]; 31 g ai/ha, preemergence",90%
same,pest or weed control at 62 g/ha,"[7]; 62 g ai/ha, preemergence",100%
same,pest or weed control at 125 g/ha,"[7]; 125 g ai/ha, preemergence",98%
same,pest or weed control at 16 g/ha,"[7]; Preemergence, 16 g ai/ha",80%
same,pest or weed control at 31 g/ha,"[8]; 31 g ai/ha, preemergence",85%
same,pest or weed control at 62 g/ha,"[8]; 62 g ai/ha, preemergence",98%
same,pest or weed control at 125 g/ha,"[8]; 125 g ai/ha, preemergence",100%
same,pest or weed control at 16 g/ha,"[8]; Preemergence, 16 g ai/ha",80%
same,pest or weed control at 31 g/ha,"[9]; 31 g ai/ha, preemergence",20%
same,pest or weed control at 62 g/ha,"[9]; 62 g ai/ha, preemergence",60%
same,pest or weed control at 125 g/ha,"[9]; 125 g ai/ha, preemergence",90%
same,pest or weed control at 16 g/ha,"[9]; Preemergence, 16 g ai/ha",0%
same,plant injury at 31 g/ha,"[10]; 31 g ai/ha, preemergence",90%
same,plant injury at 62 g/ha,"[10]; 62 g ai/ha, preemergence",90%
same,plant injury at 125 g/ha,"[10]; 125 g ai/ha, preemergence",90%
same,plant injury at 16 g/ha,"[10]; Preemergence, 16 g ai/ha",30%
same,pest or weed control at 31 g/ha,"[11]; 31 g ai/ha, preemergence",100%
same,pest or weed control at 62 g/ha,"[11]; 62 g ai/ha, preemergence",100%
same,pest or weed control at 125 g/ha,"[11]; 125 g ai/ha, preemergence",100%
same,pest or weed control at 16 g/ha,"[11]; Preemergence, 16 g ai/ha",100%
same,plant injury at 31 g/ha,"soybean (Glycine max) [12]; 31 g ai/ha, preemergence",20%
same,plant injury at 62 g/ha,"soybean (Glycine max) [12]; 62 g ai/ha, preemergence",45%
same,plant injury at 125 g/ha,"soybean (Glycine max) [12]; 125 g ai/ha, preemergence",55%
same,plant injury at 16 g/ha,"soybean (Glycine max) [12]; Preemergence, 16 g ai/ha",5%
same,pest or weed control at 31 g/ha,"[13]; 31 g ai/ha, preemergence",45%
same,pest or weed control at 62 g/ha,"[13]; 62 g ai/ha, preemergence",70%
same,pest or weed control at 125 g/ha,"[13]; 125 g ai/ha, preemergence",80%
same,pest or weed control at 16 g/ha,"[13]; Preemergence, 16 g ai/ha",35%
same,pest or weed control at 31 g/ha,"[14]; 31 g ai/ha, preemergence",100%
same,pest or weed control at 62 g/ha,"[14]; 62 g ai/ha, preemergence",100%
same,pest or weed control at 125 g/ha,"[14]; 125 g ai/ha, preemergence",100%
same,pest or weed control at 16 g/ha,"[14]; Preemergence, 16 g ai/ha",100%
same,plant injury at 31 g/ha,"[15]; 31 g ai/ha, preemergence",0%
same,plant injury at 62 g/ha,"[15]; 62 g ai/ha, preemergence",15%
same,plant injury at 125 g/ha,"[15]; 125 g ai/ha, preemergence",10%
same,plant injury at 16 g/ha,"[15]; Preemergence, 16 g ai/ha",0%
same,pest or weed control at 31 g/ha,"[16]; 31 g ai/ha, preemergence",0%
same,pest or weed control at 62 g/ha,"[16]; 62 g ai/ha, preemergence",0%
same,pest or weed control at 125 g/ha,"[16]; 125 g ai/ha, preemergence",5%
same,pest or weed control at 16 g/ha,"[16]; Preemergence, 16 g ai/ha",0%
same,"Corn plant response rating (crop injury, 0 = no effect, 100 = complete kill) at 16 g/ha",corn (Zea mays) [17]; 16 g ai/ha,5%
same,"Corn plant response rating (crop injury, 0 = no effect, 100 = complete kill) at 31 g/ha",corn (Zea mays) [17]; 31 g ai/ha,5%
same,"Corn plant response rating (crop injury, 0 = no effect, 100 = complete kill) at 62 g/ha",corn (Zea mays) [17]; 62 g ai/ha,5%
same,"Corn plant response rating (crop injury, 0 = no effect, 100 = complete kill) at 125 g/ha",corn (Zea mays) [17]; 125 g ai/ha,5%
same,pest or weed control at 16 g/ha,[18]; 16 g ai/ha,80%
same,pest or weed control at 31 g/ha,[18]; 31 g ai/ha,80%
same,pest or weed control at 62 g/ha,[18]; 62 g ai/ha,85%
same,pest or weed control at 125 g/ha,[18]; 125 g ai/ha,85%
same,pest or weed control at 16 g/ha,[19]; 16 g ai/ha,55%
same,pest or weed control at 31 g/ha,[19]; 31 g ai/ha,75%
same,pest or weed control at 62 g/ha,[19]; 62 g ai/ha,70%
same,pest or weed control at 125 g/ha,[19]; 125 g ai/ha,80%
same,pest or weed control at 31 g/ha,[20]; 31 g ai/ha,50%
same,pest or weed control at 62 g/ha,[20]; 62 g ai/ha,60%
same,pest or weed control at 125 g/ha,[20]; 125 g ai/ha,60%
same,plant injury at 31 g/ha,soybean (Glycine max) [21]; 31 g ai/ha,70%
same,plant injury at 62 g/ha,soybean (Glycine max) [21]; 62 g ai/ha,85%
same,plant injury at 125 g/ha,soybean (Glycine max) [21]; 125 g ai/ha,40%
same,pest or weed control at 31 g/ha,[22]; 31 g ai/ha,70%
same,pest or weed control at 62 g/ha,[22]; 62 g ai/ha,80%
same,pest or weed control at 125 g/ha,[22]; 125 g ai/ha,90%
same,melting point,,158 to 161 °C
